The values below come from patent US20260085081A1, “PHOSPHATIDYLAMINE COMPOUNDS INCLUDING A PLURALITY OF TERTIARY AMINO GROUP STRUCTURES AND COMPOSITIONS THEREOF” (PEKING UNIVERSITY, priority 2022, published 2026).

SMILES strings stand for the structures.

For assay [1], the system named is Fluc-mRNA (luciferase expression). Description: In vivo transfection efficiency of Fluc-mRNA lipid nanoparticles after intramuscular injection. The following applies: for expression in vivo compared with control MC3: DOPE group, weight ratio 10:1; for expression in vivo compared with control MC3 / in vivo transfection (expression, FIG. 5): 3 μg Fluc-mRNA/mouse; for Intramuscular injection (PL/MC3) expression strength level: ratio of expression PL/MC3; for in vivo transfection (expression, FIG. 5): weight ratio lipid nanoparticle/RNA 10:1, DOPE or DSPC group. Set-up: species or system mice. The protocol:
6 h after intramuscular injection of mRNA LNPs, mice were injected intraperitoneally with 0.2 mL […] (20 mg/mL PBS solution). After 10 min, mice were anesthetized with isoflurane in oxygen in a ventilated anesthesia room and imaged with an imaging system (IVIS, PerkinElmer), and luminescence was quantified using Living Image software (PerkinElmer).

In a further assay the test system is white adipocyte. Briefly: White adipocyte administration, expression relative to SM102. In kind it is cell-based. The settings on record: for White adipocyte administration (PL/SM102) expression strength level: ratio of expression PL/SM102; for expression compared with control SM102: white adipocyte administration. From the text:
(§1) Finally, the expression levels of lipid nanoparticles with a plurality of tertiary amine groups from the embodiments of the present disclosure after intramuscular injection, white adipocyte administration, and intraperitoneal injection are summarized, and compared with lipid nanoparticles prepared from commercially available cationic lipids MC3 and SM102. […] However, the expression rates of the phosphatidylamine lipids with a plurality of tertiary amine groups from embodiments of the present disclosure are higher than that of SM102.

Assay [2] in a line: Summary of the strongest expressions over the administration routes. The settings on record: strongest level of the three administrations.
Description: as §1

In another assay the test system is adipose tissue. Briefly: Intraperitoneal injection of Fluc-mRNA LNPs, expression and distribution. The settings on record: for expression compared with control SM102: intraperitoneal injection; for Intraperitoneal injection (PL/SM102) expression strength level: ratio of expression PL/SM102. It counts as in vivo, mice. As to the method:
FIG. 10 illustrates the effect of Fluc-mRNA LNPs composed of different structural cationic lipids on the mRNA delivery efficiency after intraperitoneal administration according to some embodiments of the present disclosure. Targeting and expression of PL lipids on adipose tissue after intraperitoneal administration is also evaluated. […] That is to say, the PL lipid structure with the plurality of tertiary amino group structures may enhance the selective targeting of visceral adipocytes. […]
as §1

Turning to `CCCCCCCCCCCCN(CCCCCCCCCCCC)CCCN1CCN(CCCNP(=O)(OCCCCCCCC(=O)OC(CCCCCCCC)CCCCCCCC)OCCCCCCCC(=O)OC(CCCCCCCC)CCCCCCCC)CC1` [PL31], in assay [1], the “expression in vivo compared with control MC3” value is recorded as “better than that of control MC3”; the “Intramuscular injection (PL/MC3) expression strength level” value (“Intramuscular injection” for short) is “A (A: ≥2)”; the “in vivo transfection (expression, FIG. 5)” value (from here on “in vivo transfection”) is reported as “expressed”. The “White adipocyte administration (PL/SM102) expression strength level” value (“White adipocyte administration” for short) in the assay with white adipocyte is reported as “D (D: <0.1)”. Moreover, the “Summary of the strongest expressions” value in assay [2] is listed as “A (A: ≥2)”.
For `CCCCCCCCCCC(CCCCCCCCCC)CN(CCCN1CCN(CCCNP(=O)(OCCCCCCCC(=O)OC(CCCCCCCC)CCCCCCCC)OCCCCCCCC(=O)OC(CCCCCCCC)CCCCCCCC)CC1)CC(CCCCCCCCCC)CCCCCCCCCC` [PL36], in the assay with white adipocyte, the “White adipocyte administration” value is “C (C: ≥0.1 and <1)”. For the same compound, the “Summary of the strongest expressions” value in assay [2] was “C (C: ≥0.1 and <1)”.
On to `CCCCC/C=C\C/C=C\CCCCCCCCOP(=O)(NCCCN1CCN(CCCN(CCCCCCC(=O)OC(CC)CCCCCCCC)CCCCCCC(=O)OC(CC)CCCCCCCC)CC1)OCCCCCCCC/C=C\C/C=C\CCCCC` (stereo not shown) [PL29], for which, in assay [1], the “expression in vivo compared with control MC3” value was “better than that of control MC3”; the “Intramuscular injection” value is “A (A: ≥2)”; the “in vivo transfection” value is on record as “expressed”. Moreover, in the assay with white adipocyte, the “White adipocyte administration” value was “B (B: ≥1 and <2)”; the “expression compared with control SM102” value is “superior to that of the control SM102”. Also, in assay [2], the “Summary of the strongest expressions” value was “A (A: ≥2)”.
Consider `CCCCCCCCCCC(CCCCCCCCCC)CNCCCN1CCN(CCCNP(=O)(OCCCCCCCC(=O)OC(CCCCCCCC)CCCCCCCC)OCCCCCCCC(=O)OC(CCCCCCCC)CCCCCCCC)CC1` [PL41], for which, in assay [1], the “Intramuscular injection” value is “A (A: ≥2)” and the “in vivo transfection” value is “expressed”. Moreover, the “White adipocyte administration” value in the assay with white adipocyte was “C (C: ≥0.1 and <1)”. The “Summary of the strongest expressions” value in assay [2] is “A (A: ≥2)”.
For the compound `CCCCC/C=C\C/C=C\C/C=C\CCCCC(=O)OCCOP(=O)(NCCCN1CCN(CCCN(CCCCCCCCCCCC)CCCCCCCCCCCC)CC1)OCCOC(=O)CCCC/C=C\C/C=C\C/C=C\CCCCC` [PL93], in the assay on adipose tissue, the “expression compared with control SM102” value is listed as “superior to that of the control SM102” and the “Intraperitoneal injection (PL/SM102) expression strength level” value (“Intraperitoneal injection” for short) was “A (A: ≥2)”. The “Summary of the strongest expressions” value in assay [2] is recorded as “A (A: ≥2)”.
With `CCCCCCCCCCCCN(CCCCCCCCCCCC)CCCN1CCN(CCCNP(=O)(OCCC(C)CCCC(C)CCCC(C)CCCC(C)C)OCCC(C)CCCC(C)CCCC(C)CCCC(C)C)CC1` (stereo not shown) [PL95], in the assay on adipose tissue, the “expression compared with control SM102” value is “superior to that of the control SM102” and the “Intraperitoneal injection” value is given as “A (A: ≥2)”. Besides, the “Summary of the strongest expressions” value in assay [2] is “A (A: ≥2)”.
In the case of `CCCCC/C=C\C/C=C\CCCCCCCCOP(=O)(NCCCN(CCCCCCCCCCCC)CCc1ccc(CCN(CCCCCCCCCCCC)CCCCCCCCCCCC)cc1)OCCCCCCCC/C=C\C/C=C\CCCCC` [PL22], the “White adipocyte administration” value in the assay with white adipocyte was “C (C: ≥0.1 and <1)”. Further, in the assay with adipose tissue, the “Intraperitoneal injection” value was “D (D: <0.1)”. The “Summary of the strongest expressions” value in assay [2] is “C (C: ≥0.1 and <1)”.
For the compound `CCCCCCCCCCCCN(CCCCCCCCCCCC)CCCN1CCN(CCCNP(=O)(OCCOC(=O)CC(C)CCCC(C)CCCC(C)CCCC(C)C)OCCOC(=O)CC(C)CCCC(C)CCCC(C)CCCC(C)C)CC1` (stereo not shown) [PL96], the “Intraperitoneal injection” value with adipose tissue is “C (C: ≥0.1 and <1)”. In addition, the “Summary of the strongest expressions” value in assay [2] was “C (C: ≥0.1 and <1)”.
As for `CC/C=C\C/C=C\C/C=C\C/C=C\C/C=C\CCCC(=O)OCCCCCCOP(=O)(NCCCN1CCN(CCCN(CC(O)CCCCCCCCCC)CC(O)CCCCCCCCCC)CC1)OCCCCCCOC(=O)CCC/C=C\C/C=C\C/C=C\C/C=C\C/C=C\CC` (stereo not shown) [PL79], in the assay on white adipocyte, the “White adipocyte administration” value is “B (B: ≥1 and <2)”; the “expression compared with control SM102” value is given as “superior to that of the control SM102”. In addition, the “Intraperitoneal injection” value with adipose tissue was “C (C: ≥0.1 and <1)”. In assay [2], the “Summary of the strongest expressions” value is “B (B: ≥1 and <2)”.
With `CCCCC/C=C\C/C=C\CCCCCCCCOP(=O)(NCCCN(CC(O)CCCCCCCCCC)CC(O)CN(CC(O)CCCCCCCCCC)CC(O)CCCCCCCCCC)OCCCCCCCC/C=C\C/C=C\CCCCC` (stereo not shown) [PL19], the “White adipocyte administration” value with white adipocyte is “C (C: ≥0.1 and <1)”. Also, the “Intraperitoneal injection” value in the assay on adipose tissue is reported as “D (D: <0.1)”. In assay [2], the “Summary of the strongest expressions” value was “C (C: ≥0.1 and <1)”.
As for `CCCCCCCCCCCCN(CCCCCCCCCCCC)CCCN1CCN(CCCNP(=O)(OCCCCCCCC(=O)OC(CC)CCCCCCCC)OCCCCCCCC(=O)OC(CC)CCCCCCCC)CC1` (stereo not shown) [PL32], in assay [1], the “Intramuscular injection” value is given as “A (A: ≥2)” and the “in vivo transfection” value was “expressed”. In assay [2], the “Summary of the strongest expressions” value was “A (A: ≥2)”.
As for `CCCCC/C=C\C/C=C\CCCCCCCCOP(=O)(NCCCN1CCN(CCCN(CCCCCCCCCCCC)CCCCCCCCCCCC)CC1)OCCCCCCCC(=O)OC(CCCCCCCC)CCCCCCCC` (stereo not shown) [PL30], in assay [1], the “expression in vivo compared with control MC3” value is given as “better than that of control MC3”; the “Intramuscular injection” value is on record as “A (A: ≥2)”; the “in vivo transfection” value is reported as “expressed”. In addition, the “White adipocyte administration” value in the assay with white adipocyte is “D (D: <0.1)”. The “Summary of the strongest expressions” value in assay [2] is reported as “A (A: ≥2)”.
Consider `CCCCC/C=C\C/C=C\CCCCCCCCOP(=O)(NCCCN1CCN(CCCNCC(CCCCCC)CCCCCCCC)CC1)OCCCCCCCC/C=C\C/C=C\CCCCC` (stereo not shown) [PL44], for which the “Intramuscular injection” value in assay [1] was “C (C: ≥0.1 and <1)”. Moreover, the “White adipocyte administration” value with white adipocyte is “C (C: ≥0.1 and <1)”. Also, the “Summary of the strongest expressions” value in assay [2] is “C (C: ≥0.1 and <1)”.
Turning to `CCCCCCCCCCCCN(CCCCCCCCCCCC)CCCN1CCN(CCCNP(=O)(OCCCCCCCC(=O)OC(C)CC(=O)OCC)OCCCCCCCC(=O)OC(C)CC(=O)OCC)CC1` (stereo not shown) [PL97], the “Intraperitoneal injection” value in the assay on adipose tissue is “C (C: ≥0.1 and <1)”. In addition, the “Summary of the strongest expressions” value in assay [2] is “C (C: ≥0.1 and <1)”.
On to `CCCCC/C=C\C/C=C\CCCCCCCCOP(=O)(NCCCN1CCN(CCCN(CCCCCCCCCCCC)CCCCCCCCCCCC)CC1)OCCCCCCCC(=O)OC(CC)CCCCCCCC` (stereo not shown) [PL103], for which, in assay [1], the “Intramuscular injection” value is given as “A (A: ≥2)” and the “in vivo transfection” value was “expressed”. In addition, the “Summary of the strongest expressions” value in assay [2] was “A (A: ≥2)”.
Turning to `CCCCCCCC/C=C\CCOC(=O)CCCOP(=O)(NCCN(CCCCCCCCCCCC)CCCN(C)C)OCCCC(=O)OCC/C=C\CCCCCCCC` [PL13], in assay [1], the “Intramuscular injection” value is on record as “A (A: ≥2)” and the “in vivo transfection” value is on record as “expressed”. Further, in the assay on white adipocyte, the “White adipocyte administration” value is listed as “D (D: <0.1)”. In assay [2], the “Summary of the strongest expressions” value was “A (A: ≥2)”.
For the compound `CCCCC/C=C\C/C=C\CCCCCCCCOP(=O)(NCCN1CCN(CCOC(=O)CCN(CCCCCCCCCCCC)CCCCCCCCCCCC)CC1)OCCCCCCCC/C=C\C/C=C\CCCCC` [PL26], in assay [1], the “expression in vivo compared with control MC3” value is “better than that of control MC3”; the “Intramuscular injection” value was “A (A: ≥2)”; the “in vivo transfection” value was “expressed”. In addition, in the assay on white adipocyte, the “White adipocyte administration” value was “C (C: ≥0.1 and <1)”. Further, in assay [2], the “Summary of the strongest expressions” value is on record as “A (A: ≥2)”.
Consider `CCCCC/C=C\C/C=C\CCCCCCCCOP(=O)(NCCCN1CCN(CCCN(CCCCCCC(=O)OC(CCCCCCCC)CCCCCCCC)CCCCCCC(=O)OC(CCCCCCCC)CCCCCCCC)CC1)OCCCCCCCC/C=C\C/C=C\CCCCC` [PL28], for which, in assay [1], the “Intramuscular injection” value is “A (A: ≥2)” and the “in vivo transfection” value was “expressed”. Besides, the “White adipocyte administration” value in the assay with white adipocyte was “C (C: ≥0.1 and <1)”. Besides, the “Summary of the strongest expressions” value in assay [2] is listed as “A (A: ≥2)”.
As to `CCCCC/C=C\C/C=C\C/C=C\CCCCCOP(=O)(NCCCN1CCN(CCCN(CCCCCCCCCCCC)CCCCCCCCCCCC)CC1)OCCCCC/C=C\C/C=C\C/C=C\CCCCC` [PL94], in the assay on adipose tissue, the “expression compared with control SM102” value was “superior to that of the control SM102” and the “Intraperitoneal injection” value is listed as “A (A: ≥2)”. Moreover, the “Summary of the strongest expressions” value in assay [2] is given as “A (A: ≥2)”.
On to `CCCCCCCCC(CCCCCC)CNCCCN1CCN(CCCNP(=O)(OCC(CCCCCC)CCCCCCCC)OCC(CCCCCC)CCCCCCCC)CC1` (stereo not shown) [PL45], for which the “Intramuscular injection” value in assay [1] is “C (C: ≥0.1 and <1)”. Further, the “White adipocyte administration” value with white adipocyte is “C (C: ≥0.1 and <1)”. In assay [2], the “Summary of the strongest expressions” value is “C (C: ≥0.1 and <1)”.
Consider `CCCCCCCCCCCCN(CCCCCCCCCCCC)CCCN1CCN(CCCNP(=O)(OCC(CCCCCC)CCCCCCCC)OCC(CCCCCC)CCCCCCCC)CC1` (stereo not shown) [PL33], for which, in assay [1], the “Intramuscular injection” value is on record as “A (A: ≥2)” and the “in vivo transfection” value is “expressed”. Moreover, in assay [2], the “Summary of the strongest expressions” value was “A (A: ≥2)”.
